Experimental findings from the NIST ThermoML archive (doi:10.1021/je020228x) are described below.

For data set [1] the following is noted: Crystal.
The nature of data set [2]: molar enthalpy of transition or fusion. The conditions noted are these: Crystal, DSC.
Data set [3] in a line: molar heat capacity at constant pressure. The following applies: 445.51 K; 101.33 kPa; Crystal; Small sample (50 mg) DSC.

± gives the expanded uncertainty stated by the source.

For `Cc1nc2ccccc2[nH]1` [2-methylbenzimidazole], in data set [1] (DTA), the Normal melting temperature was found to be 178.28 °C. Also, the “molar enthalpy of transition or fusion” value in data set [2] (383.93 K) worked out at 0.14 kcal/mol; in data set [2] (451.43 K), 4.9 kcal/mol.
`CC(C)(C)O` [2-methylpropan-2-ol]: in data set [1] (visual observation), the Normal melting temperature amounted to 24.84 ± 0.39 °C.
Take `c1ccc2[nH]cnc2c1` [benzimidazole]: the Normal melting temperature in data set [1] (DTA) came out at 172.36 °C. Also, the “molar heat capacity at constant pressure” value in data set [3] stood at 49.09 J/K/mol. Also, the “molar enthalpy of transition or fusion” value in data set [2] (384.43 K) was 0.17 kcal/mol; in data set [2] (445.51 K), 4.89 kcal/mol.
